We go through two compounds from patent publication US20240270810A1, “PREPARATION AND APPLICATION OF POLYPEPTIDE” (GUANGDONG RAYNOVENT BIOTECH CO., LTD., priority 2021, published 2024).

One series deals with mouse plasma albumin. It counts as in vitro ADME. The protocol: (§1) To study the binding of the test compounds to human/mouse plasma albumin. • 1. Blank matrix preparation: On the day of the experiment, the plasma was thawed in cold water and centrifuged at 3220 rpm for 5 min to remove all the blood clots. The pH of the resulting plasma was measured and adjusted to 7.4±0.1 with 1% of phosphoric acid or 1 N of sodium hydroxide as desired. • 2. Dilution of the test compounds: the test compounds were dissolved in dimethyl sulfoxide (DMSO) to prepare stock solutions of 10 mM and 2 mM, respectively. 2 μL of the stock solution (2 mM) was diluted with 98 μL of DMSO to obtain a working solution of 40 μM. 10 μL of the stock solution was diluted with 240 μL of DMSO to obtain a working solution of control compounds of 400 μM. A working solution of the compounds (5 μL) was mixed evenly with a blank matrix (995 μL) at a ratio of 1:200 to prepare a loading matrix. • 3. Analytical procedure • 3.1 Equal amounts of 30 μL of the loading matrix (n=2) were transferred into a sample collection plate to prepare Time 0 (T0) samples for residue determination. The samples were immediately matched with corresponding blank buffer to a final volume of 60 μL, with a volume ratio of plasma (the loading matrix) to buffer being 1:1 in each well. Then, into the T0 samples of the test compounds were respectively added 60 μL of 4% H3PO4 in H2O and 480 μL of stop solution containing internal standard. They were then stored at 2° C. to 8° C. together with other samples for further treatment. • 3.2 The remaining plasma samples were pre-incubated in a carbon dioxide incubator at 37±1° C. for 30 min. Protein-free samples (F samples) were prepared. Matrix-loaded samples (230 μL) were all transferred into polycarbonate tubes (n=2) and ultracentrifuged at 37° C. and 155,000×g (35000 rpm) for 4 h. • 3.3 To prepare T samples (test samples), an additional matrix-containing sample was transferred into a separate 96-well plate (sample incubation plate) and incubated at 37° C. for 4 h. • 3.4 At the end of centrifugation, 30 μL of protein-free samples (F samples) and 30 μL of T samples were taken from the second layer (beneath the upper layer) of the supernatant and transferred into a new sample collection plate. Each sample was mixed with corresponding blank buffer or matrix to a final volume of 60 μL, and the blank matrix:buffer volume ratio is 1:1. Into all the samples were added 60 μL of 4% H3PO4 solution in water and 480 μL of stop solution containing internal standard. The mixture was centrifuged at 4000 rpm for 20 min. 100 μL of supernatant for each sample was taken for LC-MS/MS analysis.

The test system of a further series is human plasma albumin. It counts as in vitro ADME. The protocol: as §1
The next series deals with T1, GIPR (Homo sapiens, UniProt P48546).
T1 construct: host or cells: CHO
T1 sequence (P48546 22-466): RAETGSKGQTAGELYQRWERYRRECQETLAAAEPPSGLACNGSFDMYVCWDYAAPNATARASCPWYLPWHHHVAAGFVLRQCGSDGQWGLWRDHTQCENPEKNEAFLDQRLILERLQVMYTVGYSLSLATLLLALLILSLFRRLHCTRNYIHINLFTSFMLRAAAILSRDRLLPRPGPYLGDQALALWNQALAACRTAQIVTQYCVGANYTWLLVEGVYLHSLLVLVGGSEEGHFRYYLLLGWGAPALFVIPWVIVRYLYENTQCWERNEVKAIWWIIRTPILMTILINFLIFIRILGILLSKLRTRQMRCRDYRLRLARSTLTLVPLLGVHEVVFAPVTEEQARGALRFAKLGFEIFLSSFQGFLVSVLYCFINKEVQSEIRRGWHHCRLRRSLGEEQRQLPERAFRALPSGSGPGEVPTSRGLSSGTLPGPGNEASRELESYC
The series is described as follows: In vitro GIPR agonistic activity test (cAMP kit). It counts as cell-based. The settings on record: CHO host cells. Here is the method:
The cell lines were constructed by Wuxi […] (Shanghai) Co., Ltd. See details in Table 1 below. […] The test compounds were diluted at a 4-fold dilution factor in 10 points, starting from an initial concentration of 30 μM. The dilution was carried out by Bravo. • 1) 100 nL of compounds were transferred to an OptiPlate-384 plate by Echo. • 2) The OptiPlate-384 plate was centrifuged at 1000 rpm for 5 s. • 1) A GLP-1R/GIPR cell cryovial was placed in warm water at 37° C. for rapid thawing. • 2) The cell suspension was transferred into a 15 mL Transfer centrifugal tube and rinsed with 10 mL of HBSS gently. • 3) The centrifugal tube was centrifuged at 1000 rpm at room temperature for 1 min. • 4) The supernatant was discarded. • 5) The bottom cells were gently dispersed, then gently rinsed with 10 mL of HBSS, the centrifugal tube was centrifuged to settle the cells, and finally the cells were resuspended in an experimental buffer. • 6) Cell density and viability were measured by Vi-cell. • 7) The GLP-1R/GIPR cells were diluted with the experimental buffer to a concentration of 2.0*10^5/mL. • 8) […] of the diluted cell suspension was transferred into the OptiPlate-384 plate. • 9) Incubation was performed at room temperature for 30 min. • 1) 10 μL of 800 nM gradient diluted cAMP standard was added into the empty wells of the OptiPlate-384 plate. • 2) 10 μL of cAMP assay reagent was added. • 3) The OptiPlate-384 plate was covered with TopSeal-A film and incubated at room temperature for 60 min. The TopSeal-A film was removed, and readout was performed on En Vision.

SMILES strings stand for the structures.

`CC[C@H](C)[C@H](NC(=O)[C@H](CC(C)C)NC(=O)[C@H](Cc1c[nH]c2ccccc12)NC(=O)[C@H](CCC(=O)O)NC(=O)[C@@H](NC(=O)[C@H](Cc1ccccc1)NC(=O)[C@H](C)NC(=O)[C@@H]1CCCCNC(=O)CN(C(=O)COCCOCCNC(=O)COCCOCCNC(=O)CC[C@H](NC(=O)CCCCCCCCCCCCCCCCCCC(=O)O)C(=O)O)CC(=O)NCCCC[C@H](NC(=O)[C@H](CCCCN)NC(=O)[C@H](CC(=O)O)NC(=O)[C@H](CC(C)C)NC(=O)C(C)(C)NC(=O)[C@@H](NC(=O)[C@H](CO)NC(=O)[C@H](Cc2ccc(O)cc2)NC(=O)[C@H](CC(=O)O)NC(=O)[C@H](CO)NC(=O)[C@@H](NC(=O)[C@H](Cc2ccccc2)NC(=O)[C@@H](NC(=O)CNC(=O)[C@H](CCC(=O)O)NC(=O)C(C)(C)NC(=O)[C@@H](N)Cc2ccc(O)cc2)[C@@H](C)O)[C@@H](C)O)[C@@H](C)CC)C(=O)N[C@@H](C)C(=O)N[C@@H](CCC(N)=O)C(=O)N1)C(C)C)C(=O)N[C@@H](C)C(=O)NCC(=O)NCC(=O)N1CCC[C@H]1C(=O)N[C@@H](CO)C(=O)N[C@@H](CO)C(=O)NCC(=O)N[C@@H](C)C(=O)N1CCC[C@H]1C(=O)N1CCC[C@H]1C(=O)N1CCC[C@H]1C(=O)N[C@@H](CO)C(N)=O` [WX-005]: the “PPB % unbound (H/M), M” value in the series on mouse plasma albumin was “NA/NA”. The “PPB % unbound (H/M), H” value with human plasma albumin was “NA/NA”. Moreover, the results for the half-maximal effective concentration (EC50) at GIPR (with 1% HSA) and at GIPR (without 1% HSA) were 19.3 nM and 0.16 nM, respectively.
With `CC[C@H](C)[C@H](NC(=O)[C@H](CC(C)C)NC(=O)[C@H](Cc1c[nH]c2ccccc12)NC(=O)[C@H](CCC(=O)O)NC(=O)[C@@H](NC(=O)[C@H](Cc1ccccc1)NC(=O)[C@H](CCC(=O)O)NC(=O)[C@@H]1CCCCNC(=O)CN(C(=O)COCCOCCNC(=O)COCCOCCNC(=O)CC[C@H](NC(=O)CCCCCCCCCCCCCCCCCCC(=O)O)C(=O)O)CC(=O)NCCCC[C@H](NC(=O)[C@H](CCCCN)NC(=O)[C@H](CC(=O)O)NC(=O)[C@H](CC(C)C)NC(=O)C(C)(C)NC(=O)[C@@H](NC(=O)[C@H](CO)NC(=O)[C@H](Cc2ccc(O)cc2)NC(=O)[C@H](CC(=O)O)NC(=O)[C@H](CO)NC(=O)[C@@H](NC(=O)[C@H](Cc2ccccc2)NC(=O)[C@@H](NC(=O)CNC(=O)[C@H](CCC(=O)O)NC(=O)C(C)(C)NC(=O)[C@@H](N)Cc2ccc(O)cc2)[C@@H](C)O)[C@@H](C)O)[C@@H](C)CC)C(=O)N[C@@H](C)C(=O)N[C@@H](CCC(N)=O)C(=O)N1)C(C)C)C(=O)N[C@@H](C)C(=O)NCC(=O)NCC(=O)N1CCC[C@H]1C(=O)N[C@@H](CO)C(=O)N[C@@H](CO)C(=O)NCC(=O)N[C@@H](C)C(=O)N1CCC[C@H]1C(=O)N1CCC[C@H]1C(=O)N1CCC[C@H]1C(=O)N[C@@H](CO)C(N)=O` [WX-009], in the series on mouse plasma albumin, the “PPB % unbound (H/M), M” value is listed as “NA/NA”. Further, the “PPB % unbound (H/M), H” value in the series with human plasma albumin is reported as “NA/NA”. Moreover, the EC50 at GIPR (without 1% HSA) was found to be 0.074 nM.
